Patent US20040002447A1, “Induction of insulin expression” (REGENTS OF THE UNIVERSITY OF CALIFORNIA, priority 2002, published 2004)

Legend:
[1] = system: insulin gene expression in TRM-6/PDX-1/NeuroD1 cells; assay: Insulin mRNA expression by RT-PCR in monolayer TRM-6/PDX-1/NeuroD1 cells; assay type: cell-based, human
Procedure: FIG. 1 illustrates induction of insulin expression resulting from treatment with trichostatin A (TSA). Insulin mRNA was analyzed by RT-PCR. RT-PCR for the housekeeping gene porphobilinogen deaminase was performed to ensure that equal amounts of cDNA were used. The experiment has been repeated three times and the figure shown here is representative.
Monolayer cultures of TRM-6/PDX-1 also expressing the transcription factor NeuroD 1 (BETA2) express low levels of insulin gene expression.

[2] = system: somatostatin gene expression in TRM-6/PDX-1 cells; assay: Somatostatin mRNA expression by RT-PCR in monolayer TRM-6/PDX-1 cells; assay type: cell-based, human; settings: approximately 24 hours; for somatastatin mRNA expression (effect in words): TRM-6 cells expressing PDX-1, monolayer cultures
Procedure: The cells were incubated with the inhibitor for approximately 24 hours and then expression of somatastatin expression was measured with RT-PCR. As little as 66 nM TSA lead to an increase in somatastatin induction, with a maximal induction at 6.6. μM of TSA.

[3] = system: insulin promoter (CAT reporter) in HeLa cells; assay: Insulin promoter CAT reporter activity in HeLa cells transformed with PDX-1; assay type: cell-based; settings: HeLa cells transformed with PDX-1 and insulin promoter-CAT plasmid (FIG. 2)
Procedure: FIG. 2 is a bar graph illustrating expression of an insulin promoter in HeLa cells transformed with PDX-1. The graph illustrates differences in expression from the insulin promoter in the presence or absence of the histone deacetylase inhibitor TSA. Insulin promoter activity was determined based on expression of chloramphenicol acetyl transferase (CAT) reporter activity.
In addition, expression of an insulin promoter in HeLa cells was tested for the effect of the histone deacetylase inhibitor TSA on insulin expression. HeLa cells were transformed with PDX-1 and a plasmid comprising a portion of the insulin promoter operably linked to the chloramphenicol acetyl transferase (CAT) reporter gene. The effect of TSA and PDX-1 on insulin expression was then tested. As FIG. 2 illustrates, cells contacted with TSA had approximately 14 times the expression of cells not contacted with TSA.

CC(/C=C/C(=O)NO)=C\[C@@H](C)C(=O)c1ccc(N(C)C)cc1 [TSA, trichostatin A]
insulin expression (effect in words) ([1]; 3.3 μM for 24 hours, TRM-6/PDX-1/NeuroD1 monolayer, RT-PCR (FIG. 1)): greatly increases insulin expression | insulin gene expression in TRM-6 cells (summary statement) ([1]; TRM-6 cells): induced insulin gene expression | concentration giving maximal somatastatin induction ([2]; TRM-6/PDX-1 monolayer): 6.6 µM | lowest TSA concentration leading to an increase in somatastatin induction ([2]; TRM-6/PDX-1 monolayer): 66 nM | somatastatin mRNA expression (effect in words) [2]: bypassed the need for cell-cell contact to achieve high levels of somatostatin gene expression | somatastatin mRNA expression (effect in words) ([2]; listed as trichostatin A): induced somatastatin mRNA expression | insulin promoter expression relative to cells not contacted with TSA [3]: approximately 14 times
